Consider 40 compounds from US9221827B2, “Antimicrobial compounds and methods of making and using the same” (Melinta Therapeutics, Inc., priority 2011, dated 2015).

SMILES strings stand for the structures. A value given as a limit tells only on which side of the number the result lay.

For orientation: MIC means the least concentration at which growth counts as inhibited.

In the first test the test system is Escherichia coli strain ATCC25922. Put plainly: standard microdilution assay to determine minimum inhibitory concentrations (MICs). The test is classed as cell-based. The note with it: Escherichia coli strain ATCC25922, standard microdilution assay. In a few lines: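 MICs come from CLSI-guided microdilution in 100 μl, run alongside reference-strain performance standards. Values appear as "+" or "−" relative to 16 micrograms/ml, with "N/A" marking missing data.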
In the case of `CC(N)CCCc1cc(-c2cc3cn(-c4ccc(CNCCCCC(=N)N)cc4)c(=O)nc3[nH]2)cc(C(F)(F)F)c1` (stereo not shown) [Compound 365], the “E. coli ATCC25922 MIC” value is “− (a “−” indicates that the compound has an MIC value greater than 16 micrograms/ml)”.
Take `CC(N)CCCc1cc(-c2cc3cn(-c4ccc(CN5CCCCC5=N)cc4)c(=O)nc3[nH]2)cc(C(F)(F)F)c1` (stereo not shown) [Compound 366]: the “E. coli ATCC25922 MIC” value is given as “− (a “−” indicates that the compound has an MIC value greater than 16 micrograms/ml)”.
On the same count and under the same terms, the result for `CC(N)CCCc1cc(Cl)c(F)c(-c2cc3cn(-c4ccc(C(C)NCCCNC(N)=NC5CCC5)cc4)c(=O)nc3[nH]2)c1` (stereo not shown) [Compound 368] reads “+ (a “+” indicates that the compound has an MIC value of 16 micrograms/ml or less)”; that for `CC(N)CCCc1cccc(-c2cc3cn(-c4ccc(C(C)NCCCNC(=N)N)cc4)c(=O)nc3[nH]2)n1` (stereo not shown) [Compound 369], “+ (a “+” indicates that the compound has an MIC value of 16 micrograms/ml or less)”; that for `CC(N)CCCc1cccc(-c2cc3cn(-c4ccc(CNCCCNC(=N)N)cc4)c(=O)nc3[nH]2)n1` (stereo not shown) [Compound 370], “+ (a “+” indicates that the compound has an MIC value of 16 micrograms/ml or less)”.
For `C[C@H](N)c1ccc(-n2cc3cc(-c4cc(CCCC(C)(C)N)cc(SC(F)(F)F)c4)[nH]c3nc2=O)cc1` [Compound 371], the “E. coli ATCC25922 MIC” value is “− (a “−” indicates that the compound has an MIC value greater than 16 micrograms/ml)”.
Same read-out and setting: with `CC(C)(N)CCCc1cc(Cl)c(F)c(-c2cc3cn(-c4ccc(CN)cc4)c(=O)nc3[nH]2)c1` [Compound 372] the entry was “− (a “−” indicates that the compound has an MIC value greater than 16 micrograms/ml)”.
Still for that read-out and setting: with `C[C@H](N)c1ccc(-n2cc3cc(-c4cc(CCCC(C)(C)N)cc(Cl)c4F)[nH]c3nc2=O)cc1` [Compound 373] the entry was “− (a “−” indicates that the compound has an MIC value greater than 16 micrograms/ml)”.
As to `CCC(N)CCCc1cc(Cl)c(F)c(-c2cc3cn(-c4ccc(C(C)NCCCNC(=N)N)cc4)c(=O)nc3[nH]2)c1` (stereo not shown) [Compound 374], the “E. coli ATCC25922 MIC” value was “+ (a “+” indicates that the compound has an MIC value of 16 micrograms/ml or less)”.
As to `CC(N)COCc1cc(Cl)c(F)c(-c2cc3cn(-c4ccc(CNCCCNC(=N)N)cc4)c(=O)nc3[nH]2)c1` (stereo not shown) [Compound 375], the “E. coli ATCC25922 MIC” value is given as “+ (a “+” indicates that the compound has an MIC value of 16 micrograms/ml or less)”.
Take `CC(N)COCc1cc(Cl)c(F)c(-c2cc3cn(-c4ccc(C(C)NCCCNC(=N)N)cc4)c(=O)nc3[nH]2)c1` (stereo not shown) [Compound 376]: the “E. coli ATCC25922 MIC” value is given as “+ (a “+” indicates that the compound has an MIC value of 16 micrograms/ml or less)”.
Same read-out and setting: with `C[C@H](NCCCNC(=N)N)c1ccc(-n2cc3cc(-c4cc(CSC(C)(C)CN)cc(SC(F)(F)F)c4)[nH]c3nc2=O)cc1` [Compound 377] the entry was “+ (a “+” indicates that the compound has an MIC value of 16 micrograms/ml or less)”; with `CN(CCCNC(=N)N)Cc1ccc(-n2cc3cc(-c4cc(CCCCN)cc(Cl)c4F)[nH]c3nc2=O)cc1` [Compound 378], “+ (a “+” indicates that the compound has an MIC value of 16 micrograms/ml or less)”.
Turning to `CC(N)CCCc1cc(Cl)c(F)c(-c2cc3cn(-c4ccc(CN(C)CCCNC(=N)N)cc4)c(=O)nc3[nH]2)c1` (stereo not shown) [Compound 379], the “E. coli ATCC25922 MIC” value is on record as “+ (a “+” indicates that the compound has an MIC value of 16 micrograms/ml or less)”.
Take `CCC(N)CCCc1cc(SC(F)(F)F)cc(-c2cc3cn(-c4ccc(CNCCCNC(=N)N)cc4)c(=O)nc3[nH]2)c1` (stereo not shown) [Compound 380]: the “E. coli ATCC25922 MIC” value is “+ (a “+” indicates that the compound has an MIC value of 16 micrograms/ml or less)”.
On the same count and under the same terms, with `CCC(N)CCCc1cc(SC(F)(F)F)cc(-c2cc3cn(-c4ccc(C(C)NCCCNC(=N)N)cc4)c(=O)nc3[nH]2)c1` (stereo not shown) [Compound 381] the entry was “+ (a “+” indicates that the compound has an MIC value of 16 micrograms/ml or less)”; with `CN=C(N)NCCCNCc1ccc(-n2cc3cc(-c4cc(CCCC(C)N)cc(Cl)c4F)[nH]c3nc2=O)cc1` (stereo not shown) [Compound 382], “+ (a “+” indicates that the compound has an MIC value of 16 micrograms/ml or less)”; with `CC(N)CCCc1cc(Cl)c(F)c(-c2cc3cn(-c4ccc(C(C)NCCCNC(N)=NC5CNC5)cc4)c(=O)nc3[nH]2)c1` (stereo not shown) [Compound 383], “+ (a “+” indicates that the compound has an MIC value of 16 micrograms/ml or less)”.
Same read-out and setting: with `CC(NCCCNC(=N)N)c1ccc(-n2cc3cc(-c4cc(CCC5CC(N)C5)cc(Cl)c4F)[nH]c3nc2=O)cc1` (stereo not shown) [Compound 384] the entry was “+ (a “+” indicates that the compound has an MIC value of 16 micrograms/ml or less)”; with `CC(C)Cc1cc(CCCC(C)N)cc(-c2cc3cn(-c4ccc(C(C)NCCCNC(=N)N)cc4)c(=O)nc3[nH]2)c1` (stereo not shown) [Compound 385], “+ (a “+” indicates that the compound has an MIC value of 16 micrograms/ml or less)”; with `CC(=O)NCCCNCc1ccc(-n2cc3cc(-c4cc(CCC[C@H](C)N)cc(Cl)c4F)[nH]c3nc2=O)cc1` [Compound 386], “− (a “−” indicates that the compound has an MIC value greater than 16 micrograms/ml)”.
Same read-out and setting: the result for `CCc1cc(CCC[C@H](C)N)nc(-c2cc3cn(-c4ccc(CNCCCNC(=N)N)cc4)c(=O)nc3[nH]2)c1` [Compound 387] reads “+ (a “+” indicates that the compound has an MIC value of 16 micrograms/ml or less)”.
For `CCc1cc(CCC[C@H](C)N)nc(-c2cc3cn(-c4ccc([C@H](C)NCCCNC(=N)N)cc4)c(=O)nc3[nH]2)c1` [Compound 388], the “E. coli ATCC25922 MIC” value is “+ (a “+” indicates that the compound has an MIC value of 16 micrograms/ml or less)”.
Still for that read-out and setting: with `C[C@H](N)CCCc1cc(C(F)(F)F)cc(-c2cc3cn(-c4ccc(CNCCCNC(=N)N)cc4)c(=O)nc3[nH]2)n1` [Compound 389] the entry was “+ (a “+” indicates that the compound has an MIC value of 16 micrograms/ml or less)”; with `CC(NCCCNC(=N)N)c1ccc(-n2cc3cc(-c4cc(CCCC(N)CO)cc(Cl)c4F)[nH]c3nc2=O)cc1` (stereo not shown) [Compound 391], “+ (a “+” indicates that the compound has an MIC value of 16 micrograms/ml or less)”.
`CC[C@H](NCCCNC(=N)N)c1ccc(-n2cc3cc(-c4cc(CCC[C@H](C)N)cc(Cl)c4F)[nH]c3nc2=O)cc1` [Compound 392]: the “E. coli ATCC25922 MIC” value is reported as “+ (a “+” indicates that the compound has an MIC value of 16 micrograms/ml or less)”.
Same read-out and setting: the result for `C[C@H](N)CCCc1cc(-c2cc3cn(-c4ccc([C@H](C)NCCCNC(=N)N)cc4)c(=O)nc3[nH]2)cc2c1CCC2` [Compound 393] reads “+ (a “+” indicates that the compound has an MIC value of 16 micrograms/ml or less)”; that for `C[C@H](N)CCCc1cc(Cl)c(F)c(-c2cc3cn(-c4ccc(CNCCCN/C(N)=N\[N+](=O)[O-])cc4)c(=O)nc3[nH]2)c1` [Compound 394], “+ (a “+” indicates that the compound has an MIC value of 16 micrograms/ml or less)”; that for `C[C@H](NCCCNC(=N)N)c1ccc(-n2cc3cc(-c4cc(C[C@H]5C[C@@H](N)C5)cc(C(F)(F)F)c4)[nH]c3nc2=O)cc1` [Compound 395], “+ (a “+” indicates that the compound has an MIC value of 16 micrograms/ml or less)”.
Same read-out and setting: with `C[C@H](NCCCNC(=N)N)c1ccc(-n2cc3cc(-c4cc(C[C@H]5C[C@H](N)C5)cc(C(F)(F)F)c4)[nH]c3nc2=O)cc1` [Compound 396] the entry was “+ (a “+” indicates that the compound has an MIC value of 16 micrograms/ml or less)”; with `C[C@@H](N)CCc1cc(SC(F)(F)F)cc(-c2cc3cn(-c4ccc(CNCCCNC(=N)N)cc4)c(=O)nc3[nH]2)c1` [Compound 397], “+ (a “+” indicates that the compound has an MIC value of 16 micrograms/ml or less)”; with `C[C@H](NCCCNC(=N)N)c1ccc(-n2cc3cc(-c4cc(CC[C@@H](C)N)cc(SC(F)(F)F)c4)[nH]c3nc2=O)cc1` [Compound 398], “+ (a “+” indicates that the compound has an MIC value of 16 micrograms/ml or less)”.
For `CC[C@H](NCCCNC(=N)N)c1ccc(-n2cc3cc(-c4cc(CCC[C@H](C)N)cc(C(F)(F)F)c4)[nH]c3nc2=O)cc1` [Compound 400], the “E. coli ATCC25922 MIC” value is “+ (a “+” indicates that the compound has an MIC value of 16 micrograms/ml or less)”.
`C[C@H](NCCCNC(=N)N)c1ccc(-n2cc3cc(-c4cc(C[C@H]5C[C@@H](CN)C5)cc(SC(F)(F)F)c4)[nH]c3nc2=O)cc1` [Compound 402]: the “E. coli ATCC25922 MIC” value was “+ (a “+” indicates that the compound has an MIC value of 16 micrograms/ml or less)”.
In the case of `C[C@H](NCCCNC(=N)N)c1ccc(-n2cc3cc(-c4cc(C[C@H]5C[C@H](CN)C5)cc(SC(F)(F)F)c4)[nH]c3nc2=O)cc1` [Compound 403], the “E. coli ATCC25922 MIC” value is “+ (a “+” indicates that the compound has an MIC value of 16 micrograms/ml or less)”.
Consider `C[C@H](N)CCCc1cc(OC(F)(F)F)cc(-c2cc3cn(-c4ccc([C@@H](C)N)cc4)c(=O)nc3[nH]2)c1` [Compound 405], for which the “E. coli ATCC25922 MIC” value is “− (a “−” indicates that the compound has an MIC value greater than 16 micrograms/ml)”.
`C[C@H](N)CCCc1cc(Cl)c(F)c(-c2cc3cn(-c4ccc([C@@H](C)N)cc4)c(=O)nc3[nH]2)c1` [Compound 406]: the “E. coli ATCC25922 MIC” value is reported as “− (a “−” indicates that the compound has an MIC value greater than 16 micrograms/ml)”.
Same read-out and setting: with `CC[C@H](NCCCNC(=N)N)c1ccc(-n2cc3cc(-c4cc(CCC[C@H](C)N)cc(SC(F)(F)F)c4)[nH]c3nc2=O)cc1` [Compound 407] the entry was “+ (a “+” indicates that the compound has an MIC value of 16 micrograms/ml or less)”; with `CC(C)c1cc(CCC[C@H](C)N)cc(-c2cc3cn(-c4ccc(CNCCCNC(=N)N)cc4)c(=O)nc3[nH]2)c1F` [Compound 408], “+ (a “+” indicates that the compound has an MIC value of 16 micrograms/ml or less)”.

The test is the same for the next values; noted with them: Escherichia coli strain ATCC25922, standard microdilution assay; read-out: E. coli ATCC25922 MIC.
With `C[C@H](N)CCCc1cc(C(F)(F)F)cc(-c2cc3cn(-c4ccc([C@H](C)NCCCNC(=N)N)cc4)c(=O)nc3[nH]2)n1` [Compound 390], the MIC is at most 16 µg/mL.
